pIC50: −log10 of the molar value.
Tests used:
Assay in all cases: cells
Format in all cases: functional, cell-based, Homo sapiens
NCI-H727 = details: Homo sapiens, NCI-H727;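 also: growth inhibition of human NCI-H727 cells, read out with a cell viability assay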
Description: SANGER: Inhibition of human NCI-H727 cell growth in a cell viability assay.

HT-1080 = details: Homo sapiens, HT-1080
Description: SANGER: Inhibition of human HT-1080 cell growth in a cell viability assay.

A 172 = details: Homo sapiens, A 172;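 also: growth inhibition of A172 cells, measured with a cell viability readout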
Description: SANGER: Inhibition of human A172 cell growth in a cell viability assay.

LB647-SCLC = details: Homo sapiens, LB647-SCLC;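 also: cell growth inhibition, read out by a viability assay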
Description: SANGER: Inhibition of human LB647-SCLC cell growth in a cell viability assay.

CAL-72 = details: Homo sapiens, CAL-72;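 also: cell viability assay measuring inhibition of proliferation in the CAL-72 cell line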
Description: SANGER: Inhibition of human CAL-72 cell growth in a cell viability assay.

MG-63 = details: Homo sapiens, MG-63;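 also: growth inhibition of human MG-63 cells, read out with a cell viability assay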
Description: SANGER: Inhibition of human MG-63 cell growth in a cell viability assay.

HOS = details: Homo sapiens, HOS;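 also: growth inhibition of human HOS cells, read out with a cell viability assay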
Description: SANGER: Inhibition of human HOS cell growth in a cell viability assay.

8305C = details: Homo sapiens, 8305C
Description: SANGER: Inhibition of human 8305C cell growth in a cell viability assay.

KYSE-450 = details: Homo sapiens, KYSE-450;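 also: cell growth inhibition measured by a viability assay in human KYSE-450 cells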
Description: SANGER: Inhibition of human KYSE-450 cell growth in a cell viability assay.

SiHa = details: Homo sapiens, SiHa;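 also: Viability-based readout of growth inhibition in SiHa cells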
Description: SANGER: Inhibition of human SiHa cell growth in a cell viability assay.

NCI-H460 = details: Homo sapiens, NCI-H460;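 also: cell viability assay scoring growth inhibition of human NCI-H460 cells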
Description: SANGER: Inhibition of human NCI-H460 cell growth in a cell viability assay.

NCI-H1693 = details: Homo sapiens, NCI-H1693;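 also: growth inhibition of the human cell line, read out with a cell viability assay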
Description: SANGER: Inhibition of human NCI-H1693 cell growth in a cell viability assay.

HSC-3 = details: Homo sapiens, HSC-3
Description: SANGER: Inhibition of human HSC-3 cell growth in a cell viability assay.

NCI-H1963 = details: Homo sapiens, NCI-H1963;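 also: cell growth inhibition of the human line, determined with a cell viability assay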
Description: SANGER: Inhibition of human NCI-H1963 cell growth in a cell viability assay.

MHH-ES-1 = details: Homo sapiens, MHH-ES-1;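 also: cell growth inhibition measured by a cell viability assay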
Description: SANGER: Inhibition of human MHH-ES-1 cell growth in a cell viability assay.

NCI-H2228 = details: Homo sapiens, NCI-H2228;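 also: growth inhibition of human NCI-H2228 cells, read out by a cell viability assay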
Description: SANGER: Inhibition of human NCI-H2228 cell growth in a cell viability assay.

HT-29 = details: Homo sapiens, HT-29;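 also: growth inhibition of human HT-29 cells, read out by a cell viability assay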
Description: SANGER: Inhibition of human HT-29 cell growth in a cell viability assay.

HGC-27 = details: Homo sapiens, HGC-27;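 also: growth inhibition of human HGC-27 cells, read out in a cell viability assay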
Description: SANGER: Inhibition of human HGC-27 cell growth in a cell viability assay.

EFO-21 = details: Homo sapiens, EFO-21;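 also: growth inhibition of EFO-21 cells measured with a viability assay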
Description: SANGER: Inhibition of human EFO-21 cell growth in a cell viability assay.

VMRC-RCZ = details: Homo sapiens, VMRC-RCZ;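 also: growth inhibition measured with a cell viability assay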
Description: SANGER: Inhibition of human VMRC-RCZ cell growth in a cell viability assay.

NCI-H1437 = details: Homo sapiens, NCI-H1437;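 also: growth inhibition of human NCI-H1437 cells, read out by a cell viability assay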
Description: SANGER: Inhibition of human NCI-H1437 cell growth in a cell viability assay.

NCI-H2347 = details: Homo sapiens, NCI-H2347;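 also: growth inhibition of the cell line, read out with a cell viability assay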
Description: SANGER: Inhibition of human NCI-H2347 cell growth in a cell viability assay.

SNU-423 = details: Homo sapiens, SNU-423
Description: SANGER: Inhibition of human SNU-423 cell growth in a cell viability assay.

SCC-3 = details: Homo sapiens, SCC-3;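 also: cell viability assay measuring inhibition of SCC-3 cell growth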
Description: SANGER: Inhibition of human SCC-3 cell growth in a cell viability assay.

IGR-1 = details: Homo sapiens, IGR-1;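 also: growth inhibition of human IGR-1 cells, read out with a cell viability assay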
Description: SANGER: Inhibition of human IGR-1 cell growth in a cell viability assay.

MFE-280 = details: Homo sapiens, MFE-280;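 also: growth inhibition of MFE-280 cells, determined with a cell viability readout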
Description: SANGER: Inhibition of human MFE-280 cell growth in a cell viability assay.

OVCAR-5 = details: Homo sapiens, OVCAR-5;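 also: growth inhibition of human OVCAR-5 cells, read out with a cell viability assay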
Description: SANGER: Inhibition of human OVCAR-5 cell growth in a cell viability assay.

HCC1599 = details: Homo sapiens, HCC1599;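 also: growth inhibition of HCC1599 cells, read out in a cell viability assay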
Description: SANGER: Inhibition of human HCC1599 cell growth in a cell viability assay.

SK-MES-1 = details: Homo sapiens, SK-MES-1;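 also: growth inhibition of human SK-MES-1 cells, read out with a cell viability assay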
Description: SANGER: Inhibition of human SK-MES-1 cell growth in a cell viability assay.

DOK = details: Homo sapiens, DOK;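 also: cell viability assay read-out, values reflect inhibition of cell growth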
Description: SANGER: Inhibition of human DOK cell growth in a cell viability assay.

KYSE-180 = details: Homo sapiens, KYSE-180;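 also: growth inhibition of KYSE-180 cells, read out with a cell viability assay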
Description: SANGER: Inhibition of human KYSE-180 cell growth in a cell viability assay.

YAPC = details: Homo sapiens, YAPC;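 also: growth inhibition of YAPC cells, measured with a cell viability assay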
Description: SANGER: Inhibition of human YAPC cell growth in a cell viability assay.

RMG-I = details: Homo sapiens, RMG-I;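 also: growth inhibition of human RMG-I cells, read out with a cell viability assay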
Description: SANGER: Inhibition of human RMG-I cell growth in a cell viability assay.

EFM-19 = details: Homo sapiens, EFM-19;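 also: growth inhibition of human EFM-19 cells, measured in a cell viability assay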
Description: SANGER: Inhibition of human EFM-19 cell growth in a cell viability assay.

SW1463 = details: Homo sapiens, SW1463;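 also: growth inhibition of SW1463 cells, determined with a cell viability assay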
Description: SANGER: Inhibition of human SW1463 cell growth in a cell viability assay.

LK-2 = details: Homo sapiens, LK-2;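 also: growth inhibition of LK-2 cells, read out with a viability assay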
Description: SANGER: Inhibition of human LK-2 cell growth in a cell viability assay.

NCI-H1651 = details: Homo sapiens, NCI-H1651;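 also: Read-out is a cell viability assay, with IC50 expressing inhibition of NCI-H1651 cell growth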
Description: SANGER: Inhibition of human NCI-H1651 cell growth in a cell viability assay.

BXPC-3 = details: Homo sapiens, BXPC-3;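 also: growth inhibition of human BxPC-3 cells, read out by a cell viability assay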
Description: SANGER: Inhibition of human BxPC-3 cell growth in a cell viability assay.

DBTRG-05MG = details: Homo sapiens, DBTRG-05MG;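 also: cell viability assay measuring growth inhibition of human DBTRG-05MG cells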
Description: SANGER: Inhibition of human DBTRG-05MG cell growth in a cell viability assay.

SW1710 = details: Homo sapiens, SW1710;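 also: growth inhibition of SW1710 cells, determined with a cell viability assay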
Description: SANGER: Inhibition of human SW1710 cell growth in a cell viability assay.

SBC-5 = details: Homo sapiens, SBC-5;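 also: cell viability assay read-out, IC50 is the concentration that inhibits growth of the cells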
Description: SANGER: Inhibition of human SBC-5 cell growth in a cell viability assay.

SIG-M5 = details: Homo sapiens, SIG-M5;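 also: cell viability assay read-out, measuring how strongly growth of cultured human SIG-M5 cells is inhibited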
Description: SANGER: Inhibition of human SIG-M5 cell growth in a cell viability assay.

5637 = details: Homo sapiens
Description: SANGER: Inhibition of human 5637 cell growth in a cell viability assay.

MDA-MB-415 = details: Homo sapiens, MDA-MB-415

C=C(c1ccc(C(=O)O)cc1)c1cc2c(cc1C)C(C)(C)CCC2(C)C [BEXAROTENE]
pIC50 (NCI-H727): < 5.10
pIC50 (HT-1080): < 5.10
pIC50 (A 172): < 5.10
pIC50 (LB647-SCLC): < 5.10
pIC50 (CAL-72): < 5.10
pIC50 (MG-63): 6.10
pIC50 (HOS): < 5.10
pIC50 (8305C): < 5.10
pIC50 (KYSE-450): < 5.10
pIC50 (SiHa): < 5.10
pIC50 (NCI-H460): < 5.10
pIC50 (NCI-H1693): < 5.10
pIC50 (HSC-3): < 5.10
pIC50 (NCI-H1963): < 5.10
pIC50 (MHH-ES-1): < 5.10
pIC50 (NCI-H2228): < 5.10
pIC50 (HT-29): < 5.10
pIC50 (HGC-27): < 5.10
pIC50 (EFO-21): < 5.10
pIC50 (VMRC-RCZ): < 5.10
pIC50 (NCI-H1437): < 5.10
pIC50 (NCI-H2347): < 5.10
pIC50 (SNU-423): < 5.10
pIC50 (SCC-3): < 5.10
pIC50 (IGR-1): < 5.10
pIC50 (MFE-280): < 5.10
pIC50 (OVCAR-5): < 5.10
pIC50 (HCC1599): < 5.10
pIC50 (SK-MES-1): < 5.10
pIC50 (DOK): < 5.10
pIC50 (KYSE-180): 5.30
pIC50 (YAPC): < 5.10
pIC50 (RMG-I): < 5.10
pIC50 (EFM-19): < 5.10
pIC50 (SW1463): < 5.10
pIC50 (LK-2): < 5.10
pIC50 (NCI-H1651): < 5.10
pIC50 (BXPC-3): < 5.10
pIC50 (DBTRG-05MG): < 5.10
pIC50 (SW1710): < 5.10
pIC50 (SBC-5): < 5.10
pIC50 (SIG-M5): > 7.51
pIC50 5637: < 5.10
pIC50 (MDA-MB-415): < 5.10

C#Cc1cccc(Nc2ncnc3cc(OCCOC)c(OCCOC)cc23)c1 [ERLOTINIB]
pIC50 (LB647-SCLC): < 5.70
pIC50 (NCI-H1963): < 5.70
pIC50 (SCC-3): < 5.70
pIC50 (HCC1599): < 5.70
pIC50 (SIG-M5): < 5.70

COc1cc2ncn(-c3cc(OCc4ccccc4C(F)(F)F)c(C(N)=O)s3)c2cc1OC [GW843682X]
pIC50 (LB647-SCLC): 7.72
pIC50 (NCI-H1963): 7.86
pIC50 (SCC-3): 7.31
pIC50 (HCC1599): 7.73
pIC50 (SIG-M5): 7.68

CC(=O)O[C@H]1C(=O)[C@@]2(C)[C@H]([C@H](OC(=O)c3ccccc3)[C@]3(O)C[C@H](OC(=O)[C@H](O)[C@@H](NC(=O)c4ccccc4)c4ccccc4)C(C)=C1C3(C)C)[C@]1(OC(C)=O)CO[C@@H]1C[C@@H]2O [PACLITAXEL]
pIC50 (LB647-SCLC): 7.98
pIC50 (NCI-H1963): 7.50
pIC50 (SCC-3): 7.92
pIC50 (HCC1599): 7.69
pIC50 (SIG-M5): 8.49

N[C@@H](CSC(c1ccccc1)(c1ccccc1)c1ccccc1)C(=O)O [S-TRITYL-L-CYSTEINE]
pIC50 (LB647-SCLC): < 5.29
pIC50 (NCI-H1963): 5.94
pIC50 (SCC-3): 5.90
pIC50 (HCC1599): 5.91
pIC50 (SIG-M5): 5.56

CC[C@H](CO)Nc1nc(NCc2ccccc2)c2ncn(C(C)C)c2n1 [SELICICLIB]
pIC50 (LB647-SCLC): < 4.80
pIC50 (NCI-H1963): < 4.80
pIC50 (SCC-3): 4.84
pIC50 (HCC1599): 4.84
pIC50 (SIG-M5): < 4.80

CCN(CC)CCNC(=O)c1c(C)[nH]c(/C=C2\C(=O)Nc3ccc(F)cc32)c1C [SUNITINIB]
pIC50 (LB647-SCLC): < 5.10
pIC50 (NCI-H1963): < 5.10
pIC50 (SCC-3): 5.55
pIC50 (HCC1599): < 5.10
pIC50 (SIG-M5): 5.86
